Values quoted from earlier work, collected in US20070243232A1, “Method to treat and prevent asthma attacks using throat lozenges and orally-retained liquids containing magnesium” (priority 2006, published 2007).

Conditions: injections in the 200 mg range

O=S(=O)([O-])[O-].[Mg+2] [magnesium sulfate]
efficacy in treating asthma and effecting a rescue: modestly effective
